Experimental data: the supplement of paper PMC12317010
Where a name gives a salt, the structure may show the parent alone.

Test: collision cross section in nitrogen (drift tube, single-field); higher = larger gas-phase ion size
[1] = ion type: [M+Na], ion source: ESI, ion mode: Positive
[2] = ion type: [M-H], ion source: ESI, ion mode: Negative
[3] = ion type: [M+H], ion source: APCI, ion mode: Positive
[4] = ion type: [M+H], ion source: ESI, ion mode: Positive
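Further: chemical standards at 10 µM analysed by drift tube IMS-QTOF MS in about 3.95 torr nitrogen, mean of duplicate injections differing ≤1%, mass error below 10 ppm.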

Structure (SMILES): COP(=S)(NC(C)C)Oc1ccc(C)cc1[N+](=O)[O-] (stereo unspecified) [Amiprofos-methyl]
- collision cross section in nitrogen [1]: 172.4 Å²
- collision cross section in nitrogen [2]: 164.8 Å²

Structure (SMILES): CN(C)CCC=C1c2ccccc2CCc2ccccc21 [Amitriptyline hydrochloride]
- collision cross section in nitrogen [3]: 166.8 Å²
- collision cross section in nitrogen [4]: 167.5 Å²
- collision cross section in nitrogen [1]: 175.7 Å²

Structure (SMILES): Nc1nc[nH]n1 [Amitrole]
- collision cross section in nitrogen [2]: 113.2 Å²

Structure (SMILES): CCOP(=S)(S)OCC [Ammonium diethyl dithiophosphate]
- collision cross section in nitrogen [2]: 134.4 Å²

Structure (SMILES): CC1(C)[C@@H](O[C@H]2O[C@H](C(=O)O)[C@@H](O)[C@H](O)[C@H]2O[C@@H]2O[C@H](C(=O)O)[C@@H](O)[C@H](O)[C@H]2O)CC[C@]2(C)[C@H]3C(=O)C=C4[C@@H]5C[C@@](C)(C(=O)O)CC[C@]5(C)CC[C@@]4(C)[C@]3(C)CC[C@@H]12 [Ammonium glycyrrhizinate trihydrate]
- collision cross section in nitrogen [4]: 286.8 Å²
- collision cross section in nitrogen [1]: 294.4 Å²
- collision cross section in nitrogen [2]: 282.6 Å²

Structure (SMILES): O=[N+]([O-])O [Ammonium nitrate]
- collision cross section in nitrogen [2]: 104.5 Å²

Structure (SMILES): Clc1ccc2c(c1)C(N1CCNCC1)=Nc1ccccc1O2 [Amoxapine]
- collision cross section in nitrogen [3]: 172.4 Å²
- collision cross section in nitrogen [4]: 172.6 Å²

Structure (SMILES): Nc1cc(-c2ccncc2)c[nH]c1=O [Amrinone]
- collision cross section in nitrogen [3]: 142.7 Å²
- collision cross section in nitrogen [4]: 143.3 Å²
- collision cross section in nitrogen [2]: 140.7 Å²

Structure (SMILES): c1cncc([C@@H]2CCCCN2)c1 [Anabasine]
- collision cross section in nitrogen [3]: 136.4 Å²
- collision cross section in nitrogen [4]: 135.9 Å²

Structure (SMILES): CC(C)(C#N)c1cc(Cn2cncn2)cc(C(C)(C)C#N)c1 [Anastrozole]
- collision cross section in nitrogen [4]: 183.5 Å²
- collision cross section in nitrogen [1]: 188.9 Å²
- collision cross section in nitrogen [2]: 178.4 Å²

Structure (SMILES): COc1ccc(C(O)(c2cncnc2)C2CC2)cc1 (stereo unspecified) [Ancymidol]
- collision cross section in nitrogen [3]: 164.3 Å²
- collision cross section in nitrogen [4]: 164.2 Å²

Structure (SMILES): CC(C)(C)c1cc(CCC(=O)NCCCCCCNC(=O)CCc2cc(C(C)(C)C)c(O)c(C(C)(C)C)c2)cc(C(C)(C)C)c1O [Antioxidant 1098]
- collision cross section in nitrogen [3]: 263.2 Å²
- collision cross section in nitrogen [4]: 263.3 Å²
- collision cross section in nitrogen [1]: 259.8 Å²
- collision cross section in nitrogen (ion type: [M+], ion source: APCI, ion mode: Positive): 271.7 Å²
- collision cross section in nitrogen [2]: 252.1 Å²

Structure (SMILES): CCCCN1C(=O)[C@@H]([C@H](O)C2CCCCC2)NC(=O)C12CCN(Cc1ccc(Oc3ccc(C(=O)O)cc3)cc1)CC2 [Aplaviroc hydrochloride]
- collision cross section in nitrogen [4]: 260.4 Å²
- collision cross section in nitrogen [1]: 238.6 Å²
- collision cross section in nitrogen [2]: 235.7 Å²

Structure (SMILES): CN1CCc2cccc3c2[C@H]1Cc1ccc(O)c(O)c1-3 [Apomorphine hydrochloride]
- collision cross section in nitrogen [3]: 162.3 Å²
- collision cross section in nitrogen [4]: 162.5 Å²

Structure (SMILES): C[C@@H]1CCN(C(=O)[C@H](CCCNC(=N)N)NS(=O)(=O)c2cccc3c2NC[C@H](C)C3)[C@@H](C(=O)O)C1 [Argatroban monohydrate]
- collision cross section in nitrogen [4]: 217 Å²
- collision cross section in nitrogen [1]: 221.7 Å²
- collision cross section in nitrogen [2]: 207.8 Å²

Structure (SMILES): CC1CNc2c(cccc2S(=O)(=O)N[C@@H](CCCNC(=N)N)C(=O)N2CC[C@@H](C)C[C@@H]2C(=O)O)C1 (stereo partly specified) [Argatroban]
- collision cross section in nitrogen [4]: 216.7 Å²
- collision cross section in nitrogen [1]: 221.2 Å²
- collision cross section in nitrogen [2]: 207.5 Å²

Structure (SMILES): C[As+](C)(C)CC(=O)[O-] [Arsenobetaine]
- collision cross section in nitrogen [4]: 118 Å²

Structure (SMILES): CCCCCCCCCCCCCCCC(=O)OC[C@H](O)[C@H]1OC(=O)C(O)=C1O [Ascorbyl palmitate]
- collision cross section in nitrogen [2]: 202.4 Å²
